In patent US12581252B2, “Substituted pyrrolo[3,4-b]pyridines as PI3K-α inhibitors” (Relay Therapeutics, Inc., priority 2020, dated 2026):

Target: H1047R PIK3CA enzyme (Homo sapiens, UniProt P42336, H1047R)
Experiment: ADP-Glo Biochemical PIK3CA Kinase Assay

H1047R PIK3CA enzyme, sequence (P42336 whole entry H1047R): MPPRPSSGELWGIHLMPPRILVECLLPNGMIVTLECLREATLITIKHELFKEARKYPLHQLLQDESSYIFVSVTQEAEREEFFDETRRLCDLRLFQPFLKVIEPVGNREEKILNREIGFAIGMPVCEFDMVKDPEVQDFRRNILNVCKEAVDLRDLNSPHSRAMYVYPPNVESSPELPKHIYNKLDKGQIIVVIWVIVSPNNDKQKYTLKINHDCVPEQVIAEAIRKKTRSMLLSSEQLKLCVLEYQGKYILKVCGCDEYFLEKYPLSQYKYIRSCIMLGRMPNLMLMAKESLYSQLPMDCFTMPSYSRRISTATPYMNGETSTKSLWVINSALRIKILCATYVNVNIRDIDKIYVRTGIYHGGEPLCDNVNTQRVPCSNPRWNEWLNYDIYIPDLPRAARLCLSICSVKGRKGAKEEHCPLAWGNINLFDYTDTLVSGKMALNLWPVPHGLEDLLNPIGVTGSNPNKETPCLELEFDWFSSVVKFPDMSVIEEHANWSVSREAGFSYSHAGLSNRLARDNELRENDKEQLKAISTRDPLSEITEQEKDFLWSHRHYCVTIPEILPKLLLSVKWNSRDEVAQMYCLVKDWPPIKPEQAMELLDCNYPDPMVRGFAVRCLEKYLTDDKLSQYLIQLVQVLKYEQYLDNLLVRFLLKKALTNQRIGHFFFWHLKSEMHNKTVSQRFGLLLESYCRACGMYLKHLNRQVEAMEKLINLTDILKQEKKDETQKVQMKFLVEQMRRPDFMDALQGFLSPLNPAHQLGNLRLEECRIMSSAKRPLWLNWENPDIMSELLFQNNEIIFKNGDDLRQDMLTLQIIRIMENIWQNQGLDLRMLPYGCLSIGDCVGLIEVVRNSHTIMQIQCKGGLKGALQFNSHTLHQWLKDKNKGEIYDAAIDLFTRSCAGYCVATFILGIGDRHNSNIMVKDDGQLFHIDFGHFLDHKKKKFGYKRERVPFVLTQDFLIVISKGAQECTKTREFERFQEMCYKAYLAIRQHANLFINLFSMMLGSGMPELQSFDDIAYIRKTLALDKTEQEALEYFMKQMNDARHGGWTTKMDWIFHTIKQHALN
H1047R PIK3CA enzyme, sequence (P27986 whole entry partner): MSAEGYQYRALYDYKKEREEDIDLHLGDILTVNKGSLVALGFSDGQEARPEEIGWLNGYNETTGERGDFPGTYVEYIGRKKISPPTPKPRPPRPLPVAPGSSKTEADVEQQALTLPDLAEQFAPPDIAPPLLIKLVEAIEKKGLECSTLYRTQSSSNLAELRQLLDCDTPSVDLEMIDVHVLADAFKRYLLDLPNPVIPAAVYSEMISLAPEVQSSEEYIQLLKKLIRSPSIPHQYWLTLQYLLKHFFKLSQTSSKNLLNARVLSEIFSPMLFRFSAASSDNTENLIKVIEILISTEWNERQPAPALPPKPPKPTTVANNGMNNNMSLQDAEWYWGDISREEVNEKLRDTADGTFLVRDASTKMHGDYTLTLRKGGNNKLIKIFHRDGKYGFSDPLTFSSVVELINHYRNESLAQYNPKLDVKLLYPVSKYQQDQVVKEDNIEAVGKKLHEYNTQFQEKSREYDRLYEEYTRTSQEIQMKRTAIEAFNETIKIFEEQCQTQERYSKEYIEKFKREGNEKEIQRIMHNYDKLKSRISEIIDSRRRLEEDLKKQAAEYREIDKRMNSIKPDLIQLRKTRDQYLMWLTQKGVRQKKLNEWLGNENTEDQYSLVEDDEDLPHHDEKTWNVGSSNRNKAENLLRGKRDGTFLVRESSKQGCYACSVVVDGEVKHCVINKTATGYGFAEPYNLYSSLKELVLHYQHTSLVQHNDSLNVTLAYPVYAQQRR

IC50 [µM] | SMILES
0.1 to 0.5 | O=C(Nc1cc(O[C@H]2CCCNC2)cc2c1C(c1cc(F)ccc1Cl)NC2=O)c1cc(F)cc(C(F)(F)F)c1 (mixture of isomers) [Compound I-1527]
10 to 100 | O=C1NC(c2cc(F)ccc2Cl)c2c(NC(=O)C3CNCCO3)cc(-c3ccc4ncnn4c3)cc21 (stereo not drawn) [Compound I-1900]
1 to 10 | COc1ccc(Cl)cc1C(=O)Nc1cc(Br)cc2c1C(c1cc(F)ccc1Cl)NC2=O (stereo not drawn) [Compound I-799]
0.1 to 0.5 | O=C(Nc1cc(N2CC3(CCO3)C2)cc2c1C(c1cc(F)ccc1Cl)NC2=O)c1cc(F)cc(C(F)(F)F)c1 (stereo not drawn) [Compound I-1310]
10 to 100 | N#Cc1cccc(C2NC(=O)c3cccc(NC(=O)c4cc(F)cc(C(F)(F)F)c4)c32)c1 (stereo not drawn) [Compound I-659]
≤ 0.1 | Nc1ncc(-c2cc(NC(=O)c3cc(F)cc(C(F)(F)F)c3)c3c(c2)C(=O)NC3c2cc(F)ccc2Cl)cn1 (stereo not drawn) [Compound I-885]
≤ 0.1 | O=C1NC[C@H](c2cc(NC(=O)c3cc(F)cc(C(F)(F)F)c3)c3c(c2)C(=O)N[C@H]3c2cc(F)ccc2Cl)O1 (single isomer, unassigned) [Compound I-1559]
1 to 10 | O=C(Nc1cc(Br)cc2c1C(c1cc(F)ccc1Cl)NC2=O)c1cccc(SC(F)F)c1 (stereo not drawn) [Compound I-1386]
≤ 0.1 | O=C1NC(c2cc(F)ccc2Cl)c2c(NC(=O)c3coc4c(F)cc(F)cc34)cc(Br)cc21 (stereo not drawn) [Compound I-731]
0.5 to 1 | O=C1N[C@@H](c2cc(F)ccc2Cl)c2c(NC(=O)N3C[C@@](O)(C(F)(F)F)c4cc(F)ccc43)cc(C3COC3)cc21 (single isomer, unassigned) [Compound I-2656]
0.5 to 1 | N#Cc1cnc2c(F)cc(-c3cc(NC(=O)c4cc(F)cc(C(F)(F)F)c4)c4c(c3)C(=O)N[C@@H]4c3cc(F)ccc3Cl)cn12 [Compound I-1855]
1 to 10 | Cc1ccccc1C1NC(=O)c2c(P(C)(C)=O)ccc(NC(=O)c3cc(F)cc(C(F)(F)F)c3)c21 (stereo not drawn) [Compound I-365]
1 to 10 | O=C1NC(c2cccc(F)c2F)c2c(NC(=O)c3coc4c(F)cc(F)cc34)ccnc21 (stereo not drawn) [Compound I-210]
10 to 100 | Cc1ccccc1[C@H]1NC(=O)c2nccc(NC(=O)N3CCc4ccc(F)cc43)c21 [Compound I-247]
≤ 0.1 | C=CC(=O)Nc1cc(NC(=O)c2cc(F)cc(C(F)(F)F)c2)c2c(c1)C(=O)NC2c1cc(F)ccc1Cl (stereo not drawn) [Compound I-406]
10 to 100 | Cn1nc(Nc2cc(Br)cc3c2C(c2cc(F)ccc2Cl)NC3=O)c2ccccc21 (stereo not drawn) [Compound I-1349]
1 to 10 | O=C(Nc1cnc(NC2COC2)c2c1C(c1cc(F)ccc1Cl)NC2=O)c1cc(F)cc(C(F)(F)F)c1 (stereo not drawn) [Compound I-440]
≤ 0.1 | CC(C)(O)c1cc(NC(=O)c2nsc3ccccc23)c2c(c1)C(=O)NC2c1ccccc1C(F)F (stereo not drawn) [Compound I-356]
10 to 100 | O=C(Nc1cc(OC[C@H]2CCO2)cc2c1[C@@H](c1cc(F)ccc1Cl)NC2=O)c1cc(F)cc(C(F)(F)F)c1 (single isomer, unassigned) [Compound I-1520]
0.1 to 0.5 | Cc1ccccc1C1NC(=O)c2cc(C(F)F)cc(NC(=O)c3cc(F)cc(C(F)(F)F)c3)c21 (stereo not drawn) [Compound I-692]
≤ 0.1 | Cn1cc(-c2cc(NC(=O)c3cc(F)cc(Cl)c3)c3c(n2)C(=O)N[C@H]3c2cc(F)ccc2Cl)cn1 [Compound I-386]
≤ 0.1 | O=C(Nc1cc(-c2ccc3ncc(C(F)F)n3c2)cc2c1[C@H](c1cc(F)ccc1Cl)NC2=O)c1cc(F)cc(C(F)(F)F)c1 [Compound I-1937]
10 to 100 | O=C1NC(c2cc(F)ccc2Cl)c2c(NC3CCCNC3)cc(-c3ccc4ncnn4c3)cc21 (stereo not drawn) [Compound I-2158, 6-([1,2,4]triazolo[1,5-a]pyridin-6-yl)-3-(2-chloro-5-fluorophenyl)-4-(piperidin-3-ylamino)isoindolin-1-one]

IC50 [µM] | SMILES
≤ 0.1 | Cc1ncc(Nc2cc(NC(=O)c3cc(F)cc(C(F)(F)F)c3)c3c(c2)C(=O)NC3c2cc(F)ccc2Cl)cn1 (stereo not drawn) [Compound I-1245]
≤ 0.1 | O=C(Nc1cc(NCC2(O)CC2)cc2c1C(c1cc(F)ccc1Cl)NC2=O)c1cc(F)cc(C(F)(F)F)c1 (stereo not drawn) [Compound I-1181]
10 to 100 | COc1cc(C(=O)Nc2cc(N)cc3c2C(c2cc(F)ccc2C(F)F)NC3=O)cc(F)c1N (stereo not drawn) [Compound I-474]
≤ 0.1 | N#Cc1cnc2ccc(-c3cc(NC(=O)c4cc(F)cc(C(F)(F)F)c4)c4c(c3)C(=O)NC4c3cc(F)ccc3Cl)cc2c1 (stereo not drawn) [Compound I-1603]
0.5 to 1 | O=C(Nc1cc(-c2ccc3ncc(F)n3c2)cc2c1[C@@H](c1cc(F)ccc1Cl)NC2=O)c1cc(F)cc(C(F)(F)F)c1 [Compound I-1869]
≤ 0.1 | O=C(Nc1cc(N2CC(O)C2)nc2c1C(c1cc(F)ccc1Cl)NC2=O)c1cc(F)cc(C(F)(F)F)c1 (stereo not drawn) [Compound I-575]
≤ 0.1 | N#Cc1cc(NC(=O)c2cc(F)cc(C(F)(F)F)c2)c2c(c1)C(=O)NC2c1cc(F)ccc1C(F)F (stereo not drawn) [Compound I-237]
≤ 0.1 | O=C(Nc1cc(N2CC(F)(F)C2)nc2c1[C@H](c1cc(F)ccc1Cl)NC2=O)c1cc(F)cc(C(F)(F)F)c1 [Compound I-366]
1 to 10 | O=C1N[C@@H](c2cc(F)ccc2Cl)c2c(NC(=O)N3C[C@@H](O)c4cc(F)ccc43)cc(-c3ccc(=O)n(C(F)F)c3)cc21 (single isomer, unassigned) [Compound I-2451]
0.1 to 0.5 | CC1(F)CN(c2cc(NC(=O)c3cc(F)cc(C(F)(F)F)c3)c3c(n2)C(=O)NC3c2cc(F)ccc2Cl)C1 (stereo not drawn) [Compound I-368]
0.1 to 0.5 | O=C(Nc1cc(NC2=NCC3(CC3)O2)cc2c1C(c1cc(F)ccc1Cl)NC2=O)c1cc(F)cc(C(F)(F)F)c1 (stereo not drawn) [Compound I-2327]
10 to 100 | CC(c1ccccc1O)N(C)C(=O)Nc1cc(Br)cc2c1C(c1cc(F)ccc1Cl)NC2=O (stereo not drawn) [Compound I-1459]
1 to 10 | Cn1cc(-c2cc(NC(=O)c3nsc4ccccc34)c3c(n2)C(=O)N[C@H]3c2ccccc2Cl)cn1 [Compound I-114]
≤ 0.1 | O=C(Nc1cc(-c2cn3ncnc3cn2)cc2c1C(c1cc(F)ccc1Cl)NC2=O)c1cc(F)cc(C(F)(F)F)c1 (stereo not drawn) [Compound I-1335]
1 to 10 | O=C1N[C@@H](c2cc(F)ccc2Cl)c2c(NC(=O)N3C[C@](O)(CO)c4ccccc43)cccc21 [Compound I-2166]
10 to 100 | O=C(Nc1cc(Br)cc2c1C(c1cc(F)ccc1Cl)NC2=O)c1ccc[n+]([O-])c1 (stereo not drawn) [Compound I-1284]
0.1 to 0.5 | COCc1cc(NC(=O)c2cc(F)cc(C(F)(F)F)c2)c2c(c1)C(=O)N[C@@H]2c1cc(F)ccc1Cl [Compound I-690]
1 to 10 | N#CCCc1cc(NC(=O)N2C[C@H](O)c3cc(F)ccc32)c2c(c1)C(=O)N[C@@H]2c1cc(F)ccc1Cl (single isomer, unassigned) [Compound I-2349]
1 to 10 | N#Cc1cc(NC(=O)N2C[C@@](O)(C(F)(F)F)c3ccccc32)c2c(c1)C(=O)N[C@H]2c1cc(F)ccc1Cl (single isomer, unassigned) [Compound I-2563]
≤ 0.1 | Cn1ccc(Nc2cc(NC(=O)c3cc(F)cc(C(F)(F)F)c3)c3c(c2)C(=O)NC3c2cc(F)ccc2Cl)n1 (stereo not drawn) [Compound I-867]
0.1 to 0.5 | Cc1nn(C)cc1-c1cc(NC(=O)c2cc(F)cc(Cl)c2)c2c(n1)C(=O)NC2c1cc(F)ccc1Cl (stereo not drawn) [Compound I-380]
≤ 0.1 | O=C(Nc1cc(-c2ccn3nc(Cl)nc3c2)cc2c1[C@H](c1cc(F)ccc1Cl)NC2=O)c1cc(F)cc(C(F)(F)F)c1 [Compound I-1697]
